Measurements as given in PubChem BioAssay AID1918995 (Molecular Pharmacology Branch, DTP, NCI, 2023).

Test system: 324938-238-R-J1-PDC complex spheroid growth, % test/control
Assay: Anticancer human tumor 324938-238-R-J1-PDC patient-derived bladder carcinoma cell line growth inhibition [AhR]
Conditions: for IC50: curve of first compound; for viability, T/C: stronger effect = lower value; active = viability on the fitted dose curve at most 10% of control; inactive = the rest
How it was run: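 Spheroids combined tumor cells with HUVEC endothelial cells and human MSCs as stroma. AhR antagonists were paired with standard or investigational drugs, each dosed in half-log steps down from near clinical Cmax, or from 10 microM where Cmax was unknown.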

[1] = second compound 0.1 µM, first compound 0.0316 µM
[2] = second compound 0.1 µM, first compound 0.1 µM
[3] = second compound 0.1 µM, first compound 0.316 µM
[4] = second compound 0.1 µM, first compound 1 µM
[5] = second compound 0.1 µM, first compound 3.16 µM
[6] = second compound 0.1 µM, first compound 10 µM
[7] = second compound 0.316 µM, first compound 0.0316 µM
[8] = second compound 0.316 µM, first compound 0.1 µM
[9] = second compound 0.316 µM, first compound 0.316 µM
[10] = second compound 0.316 µM, first compound 1 µM
[11] = second compound 0.316 µM, first compound 3.16 µM
[12] = second compound 0.316 µM, first compound 10 µM
[13] = second compound 1 µM, first compound 0.0316 µM
[14] = second compound 1 µM, first compound 0.1 µM
[15] = second compound 1 µM, first compound 0.316 µM
[16] = second compound 1 µM, first compound 1 µM
[17] = second compound 1 µM, first compound 3.16 µM
[18] = second compound 1 µM, first compound 10 µM
[19] = second compound 3.16 µM, first compound 0.0316 µM
[20] = second compound 3.16 µM, first compound 0.1 µM
[21] = second compound 3.16 µM, first compound 0.316 µM
[22] = second compound 3.16 µM, first compound 1 µM
[23] = second compound 3.16 µM, first compound 3.16 µM
[24] = second compound 3.16 µM, first compound 10 µM
[25] = second compound 10 µM, first compound 0.0316 µM
[26] = second compound 10 µM, first compound 0.1 µM
[27] = second compound 10 µM, first compound 0.316 µM
[28] = second compound 10 µM, first compound 1 µM
[29] = second compound 10 µM, first compound 3.16 µM
[30] = second compound 10 µM, first compound 10 µM
[31] = second compound 0.1 µM, first compound 0.00949 µM
[32] = second compound 0.1 µM, first compound 0.03 µM
[33] = second compound 0.1 µM, first compound 0.0949 µM
[34] = second compound 0.1 µM, first compound 0.3 µM
[35] = second compound 0.316 µM, first compound 0.00949 µM
[36] = second compound 0.316 µM, first compound 0.03 µM
[37] = second compound 0.316 µM, first compound 0.0949 µM
[38] = second compound 0.316 µM, first compound 0.3 µM
[39] = second compound 1 µM, first compound 0.00949 µM
[40] = second compound 1 µM, first compound 0.03 µM
[41] = second compound 1 µM, first compound 0.0949 µM
[42] = second compound 1 µM, first compound 0.3 µM
[43] = second compound 3.16 µM, first compound 0.00949 µM
[44] = second compound 3.16 µM, first compound 0.03 µM
[45] = second compound 3.16 µM, first compound 0.0949 µM
[46] = second compound 3.16 µM, first compound 0.3 µM
[47] = second compound 10 µM, first compound 0.00949 µM
[48] = second compound 10 µM, first compound 0.03 µM
[49] = second compound 10 µM, first compound 0.0949 µM
[50] = second compound 10 µM, first compound 0.3 µM
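Also: spheroids exposed to agents for seven days before viability read.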

CC1(C)CCC(CN2CCN(c3ccc(C(=O)NS(=O)(=O)c4ccc(NCC5CCOCC5)c([N+](=O)[O-])c4)c(Oc4cnc5[nH]ccc5c4)c3)CC2)=C(c2ccc(Cl)cc2)C1 + CC(CO)NC(=O)c1cc(-c2ccc(Cl)cc2)nn(-c2cnn(C)c2)c1=O
inactive: viability, T/C [1] 102% | viability, T/C [2] 101% | viability, T/C [3] 91.8% | viability, T/C [4] 77.1% | viability, T/C [5] 72.4% | viability, T/C [6] 61.4% | viability, T/C [7] 96.2% | viability, T/C [8] 96.7% | viability, T/C [9] 89.9% | viability, T/C [10] 82.2% | viability, T/C [11] 70.9% | viability, T/C [12] 61.8% | viability, T/C [13] 80.6% | viability, T/C [14] 87.9% | viability, T/C [15] 92.3% | viability, T/C [16] 72% | viability, T/C [17] 68.2% | viability, T/C [18] 62% | viability, T/C [19] 71.8% | viability, T/C [20] 77.6% | viability, T/C [21] 68.3% | viability, T/C [22] 61.3% | viability, T/C [23] 65.5% | viability, T/C [24] 54.4% | viability, T/C [25] 62.2% | viability, T/C [26] 63.4% | viability, T/C [27] 67.6% | viability, T/C [28] 59.4% | viability, T/C [29] 61.5% | viability, T/C [30] 50.6%
> 10000 nM: IC50 (second compound 0.1 µM) | IC50 (second compound 0.316 µM) | IC50 (second compound 1 µM) | IC50 (second compound 3.16 µM) | IC50 (second compound 10 µM)

CC1COCCN1c1cc(C2(S(C)(=N)=O)CC2)nc(-c2ccnc3[nH]ccc23)n1 (stereo not given) + CC(CO)NC(=O)c1cc(-c2ccc(Cl)cc2)nn(-c2cnn(C)c2)c1=O
1580 nM: IC50 (second compound 0.316 µM)
2110 nM: IC50 (second compound 1 µM)
inactive: viability, T/C [1] 95.6% | viability, T/C [2] 109% | viability, T/C [3] 89.6% | viability, T/C [4] 69.8% | viability, T/C [5] 41.4% | viability, T/C [6] 19.8% | viability, T/C [7] 103% | viability, T/C [8] 97.5% | viability, T/C [9] 91.5% | viability, T/C [10] 57.2% | viability, T/C [11] 37.3% | viability, T/C [12] 20.6% | viability, T/C [13] 89.4% | viability, T/C [14] 95.9% | viability, T/C [15] 98.1% | viability, T/C [16] 72% | viability, T/C [17] 38.6% | viability, T/C [18] 22.5% | viability, T/C [19] 81.3% | viability, T/C [20] 77.9% | viability, T/C [21] 76.3% | viability, T/C [22] 65.6% | viability, T/C [23] 34% | viability, T/C [24] 16.7% | viability, T/C [25] 70.3% | viability, T/C [26] 73.6% | viability, T/C [27] 68.8% | viability, T/C [28] 47.3% | viability, T/C [29] 28.8% | viability, T/C [30] 20%
1760 nM: IC50 (second compound 3.16 µM)
2180 nM: IC50 (second compound 0.1 µM)
916 nM: IC50 (second compound 10 µM)

CCN(c1cc(-c2ccc(CN3CCOCC3)cc2)cc(C(=O)NCc2c(C)cc(C)[nH]c2=O)c1C)C1CCOCC1 + CC(CO)NC(=O)c1cc(-c2ccc(Cl)cc2)nn(-c2cnn(C)c2)c1=O
> 3000 nM: IC50 (second compound 0.1 µM) | IC50 (second compound 0.316 µM) | IC50 (second compound 1 µM) | IC50 (second compound 3.16 µM) | IC50 (second compound 10 µM)
inactive: viability, T/C [31] 105% | viability, T/C [32] 114% | viability, T/C [33] 107% | viability, T/C [34] 101% | viability, T/C (second compound 0.1 µM, first compound 0.949 µM) 95% | viability, T/C (second compound 0.1 µM, first compound 3 µM) 101% | viability, T/C [35] 102% | viability, T/C [36] 96.3% | viability, T/C [37] 92.8% | viability, T/C [38] 94.8% | viability, T/C (second compound 0.316 µM, first compound 0.949 µM) 96.6% | viability, T/C (second compound 0.316 µM, first compound 3 µM) 93.2% | viability, T/C [39] 88% | viability, T/C [40] 92.4% | viability, T/C [41] 89.2% | viability, T/C [42] 98.3% | viability, T/C (second compound 1 µM, first compound 0.949 µM) 90.2% | viability, T/C (second compound 1 µM, first compound 3 µM) 88.9% | viability, T/C [43] 79.3% | viability, T/C [44] 80.6% | viability, T/C [45] 76.7% | viability, T/C [46] 72.5% | viability, T/C (second compound 3.16 µM, first compound 0.949 µM) 77.3% | viability, T/C (second compound 3.16 µM, first compound 3 µM) 77.6% | viability, T/C [47] 70.4% | viability, T/C [48] 69% | viability, T/C [49] 67.5% | viability, T/C [50] 77.3% | viability, T/C (second compound 10 µM, first compound 0.949 µM) 66.3% | viability, T/C (second compound 10 µM, first compound 3 µM) 74.1%

Nc1ncn(C2CC(O)C(CO)S2)c(=O)n1 (stereo not given) + CC(CO)NC(=O)c1cc(-c2ccc(Cl)cc2)nn(-c2cnn(C)c2)c1=O
> 300 nM: IC50 (second compound 1 µM) | IC50 (second compound 10 µM)
139 nM: IC50 (second compound 3.16 µM)
254 nM: IC50 (second compound 0.316 µM)
284 nM: IC50 (second compound 0.1 µM)
inactive: viability, T/C (second compound 0.1 µM, first compound 0.000949 µM) 99.4% | viability, T/C (second compound 0.1 µM, first compound 0.003 µM) 93.2% | viability, T/C [31] 90.7% | viability, T/C [32] 84% | viability, T/C [33] 69.4% | viability, T/C [34] 49% | viability, T/C (second compound 0.316 µM, first compound 0.000949 µM) 93.9% | viability, T/C (second compound 0.316 µM, first compound 0.003 µM) 88.4% | viability, T/C [35] 78.1% | viability, T/C [36] 78.7% | viability, T/C [37] 64.2% | viability, T/C [38] 46.5% | viability, T/C (second compound 1 µM, first compound 0.000949 µM) 91.9% | viability, T/C (second compound 1 µM, first compound 0.003 µM) 89.6% | viability, T/C [39] 90.5% | viability, T/C [40] 69.4% | viability, T/C [41] 59.1% | viability, T/C [42] 54.2% | viability, T/C (second compound 3.16 µM, first compound 0.000949 µM) 75.1% | viability, T/C (second compound 3.16 µM, first compound 0.003 µM) 75.4% | viability, T/C [43] 70.3% | viability, T/C [44] 58% | viability, T/C [45] 57% | viability, T/C [46] 41.6% | viability, T/C (second compound 10 µM, first compound 0.000949 µM) 64.6% | viability, T/C (second compound 10 µM, first compound 0.003 µM) 72.6% | viability, T/C [47] 57.1% | viability, T/C [48] 65.2% | viability, T/C [49] 52.5% | viability, T/C [50] 53.3%
